# Test results from PubChem BioAssay (NCI).
#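 Cultured in 96-well plates, cells were exposed to test compound for 48 hours across five concentrations. TGI marks complete inhibition of growth.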
# Legend:
# Assay in all cases: NCI anticancer screen, dose series, 48 h
# KM12 colon = system: KM12 colon
# OVCAR-4 ovarian = system: OVCAR-4 ovarian
# OVCAR-5 ovarian = system: OVCAR-5 ovarian
# SK-MEL-2 melanoma = system: SK-MEL-2 melanoma
# 786-0 renal = system: 786-0 renal
# RPMI-8226 leukemia = system: RPMI-8226 leukemia
# A549 NSCLC = system: A549 NSCLC
# EKVX NSCLC = system: EKVX NSCLC
SMILES,TGI (KM12 colon) [µM],TGI (OVCAR-4 ovarian) [µM],TGI (OVCAR-5 ovarian) [µM],TGI (SK-MEL-2 melanoma) [µM],TGI (786-0 renal) [µM],TGI (RPMI-8226 leukemia) [µM],TGI (A549 NSCLC) [µM],TGI (EKVX NSCLC) [µM]
C=C(C(=O)O[C@H]1C/C(C)=C/CC/C(CO)=C/[C@H]2C(=O)OC(=C)[C@H]12)C(O)CO (stereo partly drawn),42.3,46.9,33,29.6,18.4,4.95,49.8,36.5
Clc1sc(Cl)c2c1[C@@H](Cl)C[C@@H]2Cl,> 100,> 100,> 100,> 100,> 100,–,> 100,> 100
Cc1ccc(S(=O)(=O)NC(CCC(=O)NNc2ccccc2)C(=O)NNc2ccccc2)cc1 (stereo not drawn),> 100,99.2,> 100,83.2,> 100,> 100,48.8,> 100
CC1=NN(c2cccc(Cl)c2)C2(C1=Cc1ccc(O)cc1)C(Cl)C(=O)N2c1nc2ccccc2s1 (stereo not drawn),65,> 100,> 100,45.9,80.6,55.8,–,> 100
O=C(Nc1sccc1S(=O)(=O)c1ccc(Cl)cc1)c1ccc(F)cc1F,> 100,53.9,81.3,39.5,36.5,> 100,> 100,43.5
Cc1cn(C2CCC(CO)(CF)O2)c(=O)[nH]c1=O (stereo not drawn),> 100,> 100,> 100,> 100,> 100,> 100,> 100,> 100
CC(C)(C)OC(=O)N/C(C=O)=C\C1CCCCC1,77.6,97.8,42.3,54.9,42.6,–,> 100,35.4
FC(F)(F)c1cc(N(C2c3ccccc3C=Cc3ccccc32)P(Cl)Cl)cc(C(F)(F)F)c1,49.4,42.9,49.6,37,35.5,51.2,44.1,38.6
Cn1nc2ccc(Nc3cc(=O)[nH]c4ccc5nn(C)nc5c34)cc2n1,> 100,> 100,> 100,> 100,> 100,–,> 100,> 100
O=P1(N2CCOCC2)OCCO1,> 100,> 100,> 100,–,> 100,> 100,> 100,> 100
CC(C)(C)C1CCC2c3c([nH]c4ccccc34)C3C(=O)N(c4ccc(C#N)cc4)C(=O)C3C2C1 (stereo not drawn),–,–,56.8,30,33.7,> 100,63.5,41.2
COc1ccc(C2C3=C(N=C4SC(C(C)=O)=C(C)N42)c2ccccc2CC3)cc1 (stereo not drawn),> 100,> 100,> 100,> 100,> 100,29.9,> 100,–
